Laboratory results from ChEMBL document CHEMBL5653615 (J Biol Chem, 2013).

Assays:
[1] = target: T1, Ephrin type-B receptor 2 (Homo sapiens) (UniProt P29323); assay: Inhibition of human EPHB2 at 500 nM by HotSpot assay relative to control
T1 sequence (whole entry): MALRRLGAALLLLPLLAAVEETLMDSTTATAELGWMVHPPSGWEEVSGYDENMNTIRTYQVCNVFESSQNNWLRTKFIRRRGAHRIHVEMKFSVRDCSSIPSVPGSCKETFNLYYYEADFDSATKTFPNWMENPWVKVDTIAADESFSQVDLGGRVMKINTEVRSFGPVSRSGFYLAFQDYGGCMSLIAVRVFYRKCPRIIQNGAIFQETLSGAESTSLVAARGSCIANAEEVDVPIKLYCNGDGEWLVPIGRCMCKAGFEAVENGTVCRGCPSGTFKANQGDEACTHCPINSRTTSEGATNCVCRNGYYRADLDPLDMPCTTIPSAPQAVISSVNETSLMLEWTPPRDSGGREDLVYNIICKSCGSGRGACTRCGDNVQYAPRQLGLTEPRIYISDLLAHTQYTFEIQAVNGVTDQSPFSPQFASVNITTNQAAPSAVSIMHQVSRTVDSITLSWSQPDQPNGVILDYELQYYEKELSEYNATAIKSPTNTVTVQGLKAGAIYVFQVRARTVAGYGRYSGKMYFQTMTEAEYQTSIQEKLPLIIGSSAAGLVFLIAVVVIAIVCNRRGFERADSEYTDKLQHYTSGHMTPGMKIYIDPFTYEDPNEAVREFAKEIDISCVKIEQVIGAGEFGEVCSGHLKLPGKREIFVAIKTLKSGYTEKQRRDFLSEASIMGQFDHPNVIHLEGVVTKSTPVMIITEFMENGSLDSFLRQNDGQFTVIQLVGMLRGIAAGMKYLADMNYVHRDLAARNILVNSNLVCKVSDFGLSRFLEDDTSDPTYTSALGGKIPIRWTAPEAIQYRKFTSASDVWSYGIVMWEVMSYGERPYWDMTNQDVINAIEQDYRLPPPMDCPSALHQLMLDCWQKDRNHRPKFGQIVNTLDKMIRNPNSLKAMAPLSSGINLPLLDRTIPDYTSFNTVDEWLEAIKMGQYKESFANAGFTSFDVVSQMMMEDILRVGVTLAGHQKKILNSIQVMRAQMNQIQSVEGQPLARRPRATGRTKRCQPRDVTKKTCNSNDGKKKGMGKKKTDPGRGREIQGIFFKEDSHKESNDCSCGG

[2] = target: Fibroblast growth factor receptor 2 (Homo sapiens) (UniProt P21802); assay: Inhibition of human FGFR2 at 500 nM by HotSpot assay relative to control
[3] = target: T2, Mitogen-activated protein kinase kinase kinase 3 (Homo sapiens) (UniProt Q99759); assay: Inhibition of human MEKK3 at 500 nM by HotSpot assay relative to control
T2 sequence (whole entry): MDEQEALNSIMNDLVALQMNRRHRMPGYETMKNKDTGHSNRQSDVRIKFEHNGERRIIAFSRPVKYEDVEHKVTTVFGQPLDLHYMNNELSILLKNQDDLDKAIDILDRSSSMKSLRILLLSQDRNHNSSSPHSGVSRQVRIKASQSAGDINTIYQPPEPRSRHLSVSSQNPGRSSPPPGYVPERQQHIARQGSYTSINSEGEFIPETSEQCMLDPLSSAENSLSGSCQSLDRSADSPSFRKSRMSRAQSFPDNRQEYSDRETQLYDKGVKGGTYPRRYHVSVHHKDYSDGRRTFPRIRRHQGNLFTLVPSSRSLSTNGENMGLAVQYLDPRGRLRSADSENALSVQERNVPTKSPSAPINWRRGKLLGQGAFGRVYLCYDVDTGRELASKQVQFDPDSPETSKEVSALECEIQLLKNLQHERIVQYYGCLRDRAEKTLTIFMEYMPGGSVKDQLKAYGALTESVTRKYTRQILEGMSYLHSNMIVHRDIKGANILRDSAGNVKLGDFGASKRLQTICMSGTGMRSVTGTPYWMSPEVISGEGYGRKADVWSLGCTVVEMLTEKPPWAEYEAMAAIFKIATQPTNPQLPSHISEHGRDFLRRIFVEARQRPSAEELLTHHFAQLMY

[4] = target: Ribosomal protein S6 kinase beta-1 (Homo sapiens) (UniProt P23443); assay: Inhibition of human RPS6KB1 at 500 nM by HotSpot assay relative to control
[5] = target: cAMP-dependent protein kinase (PKA) (Homo sapiens) (UniProt P22694+P17612+P22612); assay: Inhibition of human PKA at 500 nM by HotSpot assay relative to control; assay type: protein assay
[6] = target: Protein-tyrosine kinase 2-beta (Homo sapiens) (UniProt Q14289); assay: Inhibition of human PYK2 at 500 nM by HotSpot assay relative to control
[7] = target: T3, Tyrosine-protein kinase Tec (Homo sapiens) (UniProt P42680); assay: Inhibition of human TEC at 500 nM by HotSpot assay relative to control
T3 sequence (whole entry): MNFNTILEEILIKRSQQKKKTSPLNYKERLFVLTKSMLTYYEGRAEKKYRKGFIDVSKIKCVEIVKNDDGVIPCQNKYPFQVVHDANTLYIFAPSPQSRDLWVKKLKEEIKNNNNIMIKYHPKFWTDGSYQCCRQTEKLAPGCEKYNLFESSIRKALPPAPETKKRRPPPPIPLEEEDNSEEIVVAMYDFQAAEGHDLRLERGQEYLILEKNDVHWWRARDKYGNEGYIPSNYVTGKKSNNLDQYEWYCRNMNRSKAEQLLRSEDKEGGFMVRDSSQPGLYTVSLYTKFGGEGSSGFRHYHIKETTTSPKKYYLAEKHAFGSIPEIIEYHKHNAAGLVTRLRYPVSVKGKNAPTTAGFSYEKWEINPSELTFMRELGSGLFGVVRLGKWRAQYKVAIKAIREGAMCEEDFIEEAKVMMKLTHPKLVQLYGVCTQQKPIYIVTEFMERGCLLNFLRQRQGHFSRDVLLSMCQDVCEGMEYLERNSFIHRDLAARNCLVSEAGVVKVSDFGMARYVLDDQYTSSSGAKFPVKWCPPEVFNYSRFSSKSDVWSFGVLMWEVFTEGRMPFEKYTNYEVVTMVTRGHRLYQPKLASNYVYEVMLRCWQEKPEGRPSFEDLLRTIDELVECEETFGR

Chain of Ribosomal protein S6 kinase beta-1 (Homo sapiens) (P23443 whole entry, looked up): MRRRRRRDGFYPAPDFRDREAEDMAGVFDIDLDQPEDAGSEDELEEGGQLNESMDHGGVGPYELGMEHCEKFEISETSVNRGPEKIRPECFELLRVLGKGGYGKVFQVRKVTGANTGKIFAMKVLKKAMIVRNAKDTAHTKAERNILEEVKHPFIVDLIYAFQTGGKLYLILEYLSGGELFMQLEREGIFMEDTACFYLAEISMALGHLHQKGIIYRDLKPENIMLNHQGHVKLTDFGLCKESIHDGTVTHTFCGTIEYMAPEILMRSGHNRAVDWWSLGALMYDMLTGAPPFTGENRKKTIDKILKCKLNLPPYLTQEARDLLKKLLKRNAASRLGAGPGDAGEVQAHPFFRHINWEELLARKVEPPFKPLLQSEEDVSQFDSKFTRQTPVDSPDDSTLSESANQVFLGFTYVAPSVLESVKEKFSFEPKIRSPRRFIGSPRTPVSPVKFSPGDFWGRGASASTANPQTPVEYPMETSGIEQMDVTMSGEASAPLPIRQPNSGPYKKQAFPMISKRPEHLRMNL
Chain of Protein-tyrosine kinase 2-beta (Homo sapiens) (Q14289 whole entry, looked up): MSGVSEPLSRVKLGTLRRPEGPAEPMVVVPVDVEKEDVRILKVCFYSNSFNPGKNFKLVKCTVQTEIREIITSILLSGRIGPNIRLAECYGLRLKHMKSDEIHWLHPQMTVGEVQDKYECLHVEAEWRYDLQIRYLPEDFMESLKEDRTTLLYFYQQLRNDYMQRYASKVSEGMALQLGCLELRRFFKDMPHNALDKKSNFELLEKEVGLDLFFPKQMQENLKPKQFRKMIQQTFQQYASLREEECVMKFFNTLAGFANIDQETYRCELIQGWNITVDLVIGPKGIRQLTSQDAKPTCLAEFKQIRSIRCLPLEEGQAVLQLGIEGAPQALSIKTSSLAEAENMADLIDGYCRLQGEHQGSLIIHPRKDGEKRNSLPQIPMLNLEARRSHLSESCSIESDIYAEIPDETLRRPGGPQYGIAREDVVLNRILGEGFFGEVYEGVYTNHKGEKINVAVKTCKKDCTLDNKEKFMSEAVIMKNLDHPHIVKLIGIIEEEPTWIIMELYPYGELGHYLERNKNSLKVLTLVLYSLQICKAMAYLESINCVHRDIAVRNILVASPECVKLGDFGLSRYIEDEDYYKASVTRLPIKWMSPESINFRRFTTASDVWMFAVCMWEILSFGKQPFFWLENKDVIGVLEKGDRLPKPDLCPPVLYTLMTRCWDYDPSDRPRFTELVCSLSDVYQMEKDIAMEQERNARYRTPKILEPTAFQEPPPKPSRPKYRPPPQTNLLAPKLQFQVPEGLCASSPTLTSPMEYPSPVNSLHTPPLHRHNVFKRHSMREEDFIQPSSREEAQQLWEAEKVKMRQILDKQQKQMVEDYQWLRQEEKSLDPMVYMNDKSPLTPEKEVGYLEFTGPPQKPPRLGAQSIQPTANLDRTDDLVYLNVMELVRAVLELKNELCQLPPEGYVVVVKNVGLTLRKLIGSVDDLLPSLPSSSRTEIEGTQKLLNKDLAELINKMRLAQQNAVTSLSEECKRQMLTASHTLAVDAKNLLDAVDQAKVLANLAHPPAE
Chain of Fibroblast growth factor receptor 2 (Homo sapiens) (P21802 22-821 limits assumed): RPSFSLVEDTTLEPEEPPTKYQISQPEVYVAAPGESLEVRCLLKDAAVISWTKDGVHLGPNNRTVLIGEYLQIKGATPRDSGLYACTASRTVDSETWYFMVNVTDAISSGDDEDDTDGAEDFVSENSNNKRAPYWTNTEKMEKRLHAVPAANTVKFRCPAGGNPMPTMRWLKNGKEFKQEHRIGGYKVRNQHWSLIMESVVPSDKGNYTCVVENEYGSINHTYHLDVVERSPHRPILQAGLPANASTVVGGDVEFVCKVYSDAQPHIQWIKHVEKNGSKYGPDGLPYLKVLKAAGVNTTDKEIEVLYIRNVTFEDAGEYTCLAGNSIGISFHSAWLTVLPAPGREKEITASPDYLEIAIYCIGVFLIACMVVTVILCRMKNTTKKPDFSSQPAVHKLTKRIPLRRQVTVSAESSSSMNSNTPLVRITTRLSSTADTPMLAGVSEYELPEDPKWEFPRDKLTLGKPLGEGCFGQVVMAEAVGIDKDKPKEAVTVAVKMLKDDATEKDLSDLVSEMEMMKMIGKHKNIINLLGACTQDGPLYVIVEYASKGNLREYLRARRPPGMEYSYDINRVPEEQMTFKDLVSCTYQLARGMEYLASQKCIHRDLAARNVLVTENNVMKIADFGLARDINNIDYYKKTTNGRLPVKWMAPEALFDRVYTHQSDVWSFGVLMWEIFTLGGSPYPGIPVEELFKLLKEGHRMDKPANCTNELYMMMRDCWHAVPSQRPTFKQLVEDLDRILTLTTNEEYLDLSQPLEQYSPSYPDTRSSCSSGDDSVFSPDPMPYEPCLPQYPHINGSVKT

| SMILES | inhibition [1] [%] | inhibition [2] [%] | inhibition [3] [%] | inhibition [4] [%] | inhibition [5] [%] | inhibition [6] [%] | inhibition [7] [%] |
| --- | --- | --- | --- | --- | --- | --- | --- |
| Oc1n[nH]c2nnc(-c3c(-c4ccccc4)nn4ccccc34)cc12 | 5.22 | -0.03 | -4.26 | -2.37 | -5.26 | 2.81 | -3 |
| Nc1n[nH]c2nnc(-c3c(-c4ccccc4)nn4ccccc34)cc12 | 6.94 | -1.79 | -9.53 | 2.28 | 2.35 | 4.57 | 3.88 |
